{"source": "patent US20240254093A1", "about": "“GPR35 Agonist Compounds” (Heptares Therapeutics Limited, priority 2021, published 2024)", "key": {"GPR35 [1]": {"molecular_target": "T1, GPR35 (Homo sapiens (Human), UniProt Q9HC97)", "details": "reported in US20130316985; read-out: EC50 (weak agonist activity at GPR35); cited from earlier work"}, "Human GPR35a isoform": {"molecular_target": "Human GPR35a isoform (Homo sapiens (Human), UniProt Q9HC97)", "sequence (Q9HC97 whole entry, canonical isoform)": "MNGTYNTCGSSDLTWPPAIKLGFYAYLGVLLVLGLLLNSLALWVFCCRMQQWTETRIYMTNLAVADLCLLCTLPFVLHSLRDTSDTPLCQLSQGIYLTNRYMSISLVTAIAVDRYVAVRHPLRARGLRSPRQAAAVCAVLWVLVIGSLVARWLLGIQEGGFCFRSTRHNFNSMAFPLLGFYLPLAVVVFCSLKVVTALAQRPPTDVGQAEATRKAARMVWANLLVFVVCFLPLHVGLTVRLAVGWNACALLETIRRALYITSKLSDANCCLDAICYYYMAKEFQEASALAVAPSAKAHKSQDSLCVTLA", "experiment": "Human GPR35a isoform binding (radioligand, HEK293f membranes)", "details": "HEKf cell membranes overexpressing GPR35a isoform; read-out: Human GPR35 Ki", "procedure": "Overexpression of Human GPR35a Baculovirus in HEK293f cells at a cell density of 2.5×10^6 cells/mL and a multiplicity of infection of 2.5 over 24 h in Pro293 (Lonza)+5% FBS, 1% Glutamax and 0.4% Pen/Strep. Cells harvested and centrifuged at 2500 RPM for 10 mins at 4° C. The supernatant was then poured off and the pellet stored at −80° C. The pellet was defrosted and re-suspended in 15 mL of homogenising buffer (20 mM HEPES, 10 mM EDTA, pH 7.4). Then homogenised in mechanical homogeniser (VMR) for 10 seconds. The membrane was centrifuged in centrifuge tubes at 40,000 g for 15 mins at 4° C. The supernatant was poured away and re-suspended in 15 mL of homogenising buffer. Homogenised for 20 seconds. The membrane was centrifuged at 40,000 g for 45 mins at 4° C. The membrane was re-suspended in 3 mL of storage buffer (20 mM HEPES, 0.1 mM EDTA, pH 7.4) mixing well. The resulting membranes were then stored at −80°. GPR35 cell membrane homogenates were re-suspended in the binding buffer (50 mM TRIS+10 mM MgCl2 pH 7.4) to a final assay concentration of 5 ug/well. Test compounds were diluted in dimethylsulphoxide (DMSO (Sigma Aldrich, UK)), to form a 10 point ½ log concentration curve. Test compounds were added per plate, followed by 7 nM 3H-27966. 0.1 uM FAC Lodoxamide was added in order to allow non-specific binding to be calculated. Finally, membrane was added to each well on the plate. After 60 min incubation at room temperature, membranes were filtered onto a unifilter, 96-well white microplate with bonded GF/B filter, pre-soaked in ddH20, with a TomTec cell harvester, and washed 5 times with distilled water. Plates were dried prior to 50 ul/well scintillant added, sealed and radioactivity measured using a MicroBeta analyser. IC50 values were derived from the inhibition curve and affinity constant (Ki) values were calculated using the Cheng-Prussoff equation, where; pKi=−log 10 Ki.\n(§1) • Ki values derived from concentration response analysis in HEKf cell membranes overexpressing GPR35a isoform. EC50 values derived from concentration response analysis in HT-29 cell line endogenously expressing human GPR35."}, "GPR35 [2]": {"molecular_target": "T1, GPR35", "experiment": "Label-free DMR functional assay in HT-29 cells", "format": "cell-based", "details": "for EC50: HT-29 cell line endogenously expressing human GPR35, DMR normalised to Lodoxamide", "procedure": "HT-29 cells (ATCC HTB-38) kept in continuous culture in McCoys (Thermo 16600082) supplemented with 10% FBS. Day prior to assay, cells harvested with TrypLE (Gibco12604-013), and plated at 20 k/well in culture media in a total volume of 50 ul in Corning EPIC 384 well plates (5040) overnight 37° C. 5% CO2. On the day of assay, cell media was removed and replaced with assay buffer (HBSS+20 mM HEPES pH7.4) and reincubated for 1 h. Compounds were prepared in 100% DMSO in ECHO LDV 384 source plates. Cell plates were read on an EPIC plate reader at room temperature for 15 mins, read paused, and cell plate added to LabCyte ECHO 550 for addition of 50 nl per well compound by acoustic transfer. Plates were immediately placed back into the EPIC reader, read unpaused and Dynamic Mass Redistribution measured for 60 minutes. Raw data was analysed by EPIC Analyser software and max peak taken per concentration to enable EC50 determination. All raw DMR data was normalised to Lodoxamide and buffer corrected.\nas §1"}, "[3]": {"tested_on": "PGE2-induced fluid secretion", "experiment": "PGE2-induced fluid secretion", "format": "in vivo", "details": "preclinical species"}, "[4]": {"tested_on": "indomethacin ileitis and barrier permeability", "experiment": "indomethacin ileitis and barrier permeability", "format": "in vivo", "details": "preclinical species"}, "TNBS visceral pain": {"tested_on": "TNBS visceral pain", "experiment": "TNBS mouse visceral pain model", "format": "in vivo"}, "LPS challenge": {"tested_on": "LPS challenge", "experiment": "acute rat and mouse LPS challenge", "format": "in vivo"}, "GPR35 [5]": {"molecular_target": "T1, GPR35", "experiment": "selectivity for GPR35 / off-target effects"}, "[6]": {"tested_on": "major human CYPs, including CYP3A4", "experiment": "drug interaction potential for major human CYPs", "format": "in vitro ADME"}, "GPR35 [7]": {"molecular_target": "T1, GPR35", "details": "human vs rat GPR35; cited from earlier work"}}, "note": "Like-named read-outs stand apart in the source and are kept apart here.", "data": [{"molecule": "Nc1ccc(O)c(C(=O)O)c1", "note": "[5-aminosalicylic acid]", "values": [{"measurement": "EC50", "setting": "GPR35 [1]", "value": "~3000", "unit": "nM"}]}, {"molecule": "O=C(NCc1ccccc1)c1ccc(-c2cc(Nc3c(O)c(=O)c3=O)cc(-c3nn[nH]n3)c2)cc1", "note": "[Example 5, N-benzyl-3′-((2-hydroxy-3,4-dioxocyclobut-1-en-1-yl)amino)-5′-(1H-tetrazol-5-yl)-[1,1′-biphenyl]-4-carboxamide]", "values": [{"measurement": "Ki", "setting": "Human GPR35a isoform", "value": 0.08, "unit": "nM"}, {"measurement": "EC50", "setting": "GPR35 [2]", "value": 0.52, "unit": "nM"}, {"measurement": "functional potency for GPR35 higher than Cromolyn", "setting": "GPR35 [2]; relative to Cromolyn", "value": "about 500 times"}, {"measurement": "pharmacology in PGE2-induced fluid secretion", "setting": "[3]", "value": "showed pharmacology"}, {"measurement": "pharmacology in indomethacin ileitis and barrier permeability", "setting": "[4]", "value": "showed pharmacology"}, {"measurement": "pharmacology in TNBS mouse visceral pain model", "setting": "TNBS visceral pain", "value": "showed pharmacology"}, {"measurement": "pharmacology in acute rat and mouse LPS challenge", "setting": "LPS challenge", "value": "showed pharmacology"}, {"measurement": "off-target effects", "setting": "GPR35 [5]", "value": "no off-target effects have been observed"}, {"measurement": "selectivity for GPR35", "setting": "GPR35 [5]", "value": "strong selectivity"}, {"measurement": "drug interaction potential for the major human CYPs", "setting": "[6]", "value": "very low drug interaction potential"}]}, {"molecule": "O=c1c(O)c(Nc2cc(-c3ccc(OCCOc4ccc(C(F)(F)F)cc4)nc3)cc(-c3nn[nH]n3)c2)c1=O", "note": "[Example 27, 3-((3-(1H-tetrazol-5-yl)-5-(6-(2-(4-(trifluoromethyl)phenoxy)ethoxy)pyridin-3-yl)phenyl)amino)-4-hydroxycyclobut-3-ene-1,2-dione]", "values": [{"measurement": "Ki", "setting": "Human GPR35a isoform", "value": 0.75, "unit": "nM"}, {"measurement": "EC50", "setting": "GPR35 [2]", "value": 0.54, "unit": "nM"}]}, {"molecule": "O=c1c(O)c(Nc2cc(-c3nn[nH]n3)cc(C3CCCCC3)c2)c1=O", "note": "[Example 28, 3-((3-cyclohexyl-5-(1H-tetrazol-5-yl)phenyl)amino)-4-hydroxycyclobut-3-ene-1,2-dione]", "values": [{"measurement": "Ki", "setting": "Human GPR35a isoform", "value": 12.5, "unit": "nM"}, {"measurement": "EC50", "setting": "GPR35 [2]", "value": 6.65, "unit": "nM"}]}, {"molecule": "O=c1c(O)c(Nc2cc(-c3ccnnc3)cc(-c3nn[nH]n3)c2)c1=O", "note": "[Example 29, 3-hydroxy-4-((3-(pyridazin-4-yl)-5-(1H-tetrazol-5-yl)phenyl)amino)cyclobut-3-ene-1,2-dione]", "values": [{"measurement": "Ki", "setting": "Human GPR35a isoform", "value": 0.74, "unit": "nM"}, {"measurement": "EC50", "setting": "GPR35 [2]", "value": 1.05, "unit": "nM"}]}, {"molecule": "CN(C)C(=O)c1ccc(-c2cc(Nc3c(O)c(=O)c3=O)cc(-c3nn[nH]n3)c2)cc1", "note": "[Example 30, 3′-((2-hydroxy-3,4-dioxocyclobut-1-en-1-yl)amino)-N,N-dimethyl-5′-(1H-tetrazol-5-yl)-[1,1′-biphenyl]-4-carboxamide]", "values": [{"measurement": "Ki", "setting": "Human GPR35a isoform", "value": 5.99, "unit": "nM"}, {"measurement": "EC50", "setting": "GPR35 [2]", "value": 2.64, "unit": "nM"}]}, {"molecule": "NC(=O)c1ccc(CNC(=O)c2ccc(-c3cc(Nc4c(O)c(=O)c4=O)cc(-c4nn[nH]n4)c3)cc2)cc1", "note": "[Example 31, N-(4-carbamoylbenzyl)-3′-((2-hydroxy-3,4-dioxocyclobut-1-en-1-yl)amino)-5′-(1H-tetrazol-5-yl)-[1,1′-biphenyl]-4-carboxamide]", "values": [{"measurement": "Ki", "setting": "Human GPR35a isoform", "value": 1.61, "unit": "nM"}, {"measurement": "EC50", "setting": "GPR35 [2]", "value": 11.3, "unit": "nM"}]}, {"molecule": "O=C(O)c1cc(=O)c2ccccc2[nH]1", "note": "[kynurenic acid]", "values": [{"measurement": "potency at the human receptor lower compared to the rat ortholog", "setting": "GPR35 [7]", "value": "at least 100 fold"}]}, {"molecule": "O=C(O)c1cc(/N=N/c2ccc(S(=O)(=O)Nc3ccccn3)cc2)ccc1O", "note": "[sulfasalazine]", "values": [{"measurement": "EC50", "setting": "GPR35 [1]", "value": "~3000", "unit": "nM"}]}]}
